Patent US6583127B1, “Use of etherlysophospholipids as antiinflammatory agents” (Inkeysa. SA, priority 1998, dated 2003)

How the values were obtained:
[1] = test system: experimental colitis induced by TNB (2,4,6-trinitrobenzenesulphonic acid); assay: Rat model of experimental colitis induced by TNB, macroscopic evaluation; type: in vivo; set-up: Wet Weight (colon): unit not given beside the values; conditions: Wistar rat, 2.5 mg/Kg p.o.; for Wet Weight (colon) / Sample 2 × 6 mm / Score (0-10) / Weight/mm: Mean ± SEM
Method: The therapeutic potential for the treatment of ulcerative colitis of IEC01 at 2.5 and 5 mg/kg and IES01 at 2.5 mg/kg, was evaluated after their administration by oral route during 14 days (7 days of preventive treatment and 7 days of therapeutic treatment) using the rat model of experimental colitis induced by TNB (2,4,6-trinitrobenzenesulphonic acid). As reference parameters, the body weight, wet colon weight and score macroscopic evaluation were evaluated after 24 hours and after 7 days of the intraluminal administration of TNB in the colon. […] The inflammatory response is recognised by the presence of ulcerative fissures, faecal shatters and inflammation of bowel wall. A chronic inflammatory response was observed 7 days after the administration. An erratic response with lineal or punctual ulcers, necrosis, faecal shatters, reduction of colonic lumen, granulomas and peritoneal adherence was observed.

[2] = Body weight evaluation in the TNB colitis rat model; type: in vivo; conditions: Wistar rat, 2.5 mg/Kg p.o.; Mean ± SEM
Method: The therapeutic potential for the treatment of ulcerative colitis of IEC01 at 2.5 and 5 mg/kg and IES01 at 2.5 mg/kg, was evaluated after their administration by oral route during 14 days (7 days of preventive treatment and 7 days of therapeutic treatment) using the rat model of experimental colitis induced by TNB (2,4,6-trinitrobenzenesulphonic acid). As reference parameters, the body weight, wet colon weight and score macroscopic evaluation were evaluated after 24 hours and after 7 days of the intraluminal administration of TNB in the colon.

[3] = test system: PGE2 production in murine fibroblasts 3T3; assay: PGE2 measurement in 3T3 cells (enzyme immunoassay); type: cell-based, Mouse; conditions: for pg PGE2 (intracellular): 3T3 cells, 20 min at 37° C., Control 112 ± 21
Method: Cell culture. Human promyelocytic HL-60 cells and promonocytic U937 cells were grown in RPMI-1640 culture medium supplemented with 10% (v/v) heat-inactivated fetal calf serum, 2 mM L-glutamine, 100 units/ml penicillin and 24 μg/ml gentamicin. Mouse 3T3 fibroblasts were grown in Dulbecco's modified Eagle's medium (DMEM) supplemented with 10% (v/v) heat-inactivated fetal calf serum, 2 mM L-glutamine, 100 units/ml penicillin and 24 μg/ml gentamicin. Cells were incubated at 37° C. in a humidified atmosphere at 5% CO2 and 95% air.
Prostaglandin E2 (PGE2) measurement. 3T3 cells (1.5×10^5 in 100 μl in complete DMEM culture medium) were incubated overnight at 37° C. (5% CO2) in 96-well microtitre plates (tissue-culture grade). Then, the distinct agents were added in 100 μl complete DMEM culture medium for 20 min at 37° C. After washing thoroughly the cells with PBS, cells were lysed and intracellular PGE2 was measured using an enzyme immunoassay kit (Amersham Pharmacia Biotech, Buckinghamshire, UK) following the manufacturer's instructions. Data obtained in duplicate measurements were converted into actual amounts of PGE2 using a calibration curve run in parallel with defined amounts of PGE2.

[4] = test system: bentonite-induced skin edema in mice; assay: Bentonite-induced skin edema in mice; type: in vivo; conditions: for Area (area below the curve of difference between right and left pad diameter) / Inhibition of the inflammatory process: mice; for Inhibition of the inflammatory process: versus inflamed control
Source text: Mice were individually identified with an ear code and were kept in groups of 6 per cage (Makrolon: 47.6×22.7×14.5 cm). Each cage was individually labelled with the n^o. of the study, type of treatment, doses used and route of administration, as well as the name of the director of the study, number and gender of contained animals, date of arrival and of the beginning of the experiment.
The animals had free access to mouse standard chow (UAR A04C; Usine d'Alimentation Rationelle, 91360-Villemoisson sur Orge, Francia; lot nos. 70520 and 70722). Drinking water access was ad libitum. The water, supplied by the Compañia de Aguas de Sabadell, S.A., is routinely analysed for the presence of possible contaminants. The temperature in the animal rooms was 22±3° C., with sporadic peaks of 26° C.; air humidity was 60±10%, with sporadic peaks of 80%. Daily light (between 7:00 h and 19:00 h) and dark phases were installed automatically.
Upon arrival, all animals were allowed to rest in the facilities for 8 days before use in the experiment. Table 2 indicates the six random groups of 10 mice each were set for experimentation.
The diameter of both hind pads of all mice was measured at day 0 and set as the basal value. Edema was then induced by injecting s.c. 13.3 mg/ml bentonite in 0.03 ml PBS into the right food pad. The corresponding mice were given daily the different compounds orally for 21 days. The inflamed control group was given 0.2 ml PBS only. The diameter of hind pads, as well as the body weight, was then measured every other day.
In each experimental group the average value, the standard deviation (SD) and the standard error was determined for the two parameters studied (hind pad diameter and body weight). The factor variance analysis (FVA) was used to compare the values obtained in the different groups. Where statistically significant differences were observed, the Duncan-Kramer test for a p<0.05 was applied.
The area below the curves corresponding to the diameters of the right and left pads was calculated and the evolution of the difference between them were plotted (FIGS. 7 and 8). The anti-inflammatory capacity of the different substances was evaluated as the extent of inhibition of the inflammatory process that was calculated with the formula [formula]
where C is the area below the inflammed control group and T the area below the different treatment groups.

[5] = test system: PGE2 synthesis in human mucosal gastric biopsies; assay: Ex vivo PGE2 synthesis in human mucosal gastric biopsies; conditions: human mucosal gastric biopsies, agents 10 μM, 20 min at 37° C.; Control 115 ± 26; mean ± S.D., three experiments
Method: The ability of the gastric mucosa to generate prostaglandins estimates total cyclooxygenase (COX) activity (COX-1 plus any COX-2). To measure ex vivo prostaglandin E2 (PGE2) synthesis, normal gastric mucosal biopsies were immediately placed in Ependorff tubes containing phosphate-buffered saline (PBS). […] Each mucosal gastric biopsy was cut into different pieces (about 1 mg weight) that were subsequently weighed and incubated in the absence or in the presence of the distinct agents indicated in the corresponding Table for 20 min at 37° C. in 200 μl Hepes-glucose buffer. Then cells were mucosal gastric samples were pelleted by centrifugation, lysed and intracellular PGE2 was measured using an enzyme immunoassay kit (Amersham Pharmacia Biotech, Buckinghamshire, UK) following the manufacturer's instructions. Prostaglandin synthesis is expressed as picograms of PGE2 synthesised per mg of tissue incubation. Each experiment corresponded to the use of one biopsy, in order to avoid variability among different biopsies. Normal volunteers without a previous pharmacological treatment were selected for these assays. The normal gastroduodenal mucosa was visually assessed by endoscopy.
Human mucosal gastric biopsies were cut into about 1 mg pieces, incubated with the indicted agents (10 μM) for 20 min at 37° C. in Hepes-glucose buffer, and then the intracellular content of PGE2 was determined as described in the Methods section. Untreated control samples were run in parallel. Data are shown as mean Values+S.D. from three independent experiments.

[6] = test system: L-selectin (CD62L); assay: Cell surface expression of L-selectin in human neutrophils (immunofluorescence flow cytometry); type: cell-based; conditions: human neutrophils, 10 ng/ml; Medium = 100
Source text: (§1) Isolation and treatment of neutrophils.
(§2) Monoclonal antibodies. […] The antibodies are commercially available.
(§3) Immunofluorescence flow cytometry. […] Results were expressed as relative MFI (rMFI), such that
(§4) rMFI=(MFIagent×100)/MFImedium
(§5) Background fluorescence was substracted from all values.

[7] = test system: CD11b; assay: Cell surface expression of CD11b in human neutrophils (immunofluorescence flow cytometry); type: cell-based; conditions: 10 ng/ml, rMFI=(MFIagent×100)/MFImedium, Medium = 100
Source text: as §1, §2, §3, §4, §5

[8] = test system: HLA; conditions: human neutrophils, 10 ng/ml; Medium = 100
Method: Isolation and treatment of neutrophils. Human neutrophils were obtained from fresh peripheral blood by dextran sedimentation and centrifugation on Ficoll-Hypaque followed by hypotonic lysis of residual erythrocytes. […] Cells were resuspended at 3×10^6 neutrophils/ml in HEPES/glucose buffer (150 mM NaCl, 5 mM KCl, 10 mM HEPES, 1.2 mM MgCl2, 1.3 mM CaCl2, 5.5 mM glucose, pH 7.5), and incubated in the absence or presence of distinct agents at 37° C. for the times indicated in the respective legends to figures. Subsequently, cells were pelleted by centrifugation and saved to determine the content of different cell surface antigens by flow cytometry.
Monoclonal antibodies. The following monoclonal antibodies were used: TS1/11 anti-CD11a, Bear-1 anti-CD11b, TP1/36.1 anti-CD43, HP2/9 anti-CD44, Leu-8 anti-L-selectin, and W6/32, specific for a monomorphic determinant on HLA-A, B molecules. P3X63 myeloma culture supernatant was used as a negative control. The antibodies are commercially available.
Immunofluorescence flow cytometry. Immunofluorescence flow cytometry analysis was performed in a FACStar-Plus and a FACScan flow cytometers (Becton-Dickinson). Neutrophils were incubated at 4° C. with the corresponding monoclonal antibody followed by washing and labelling with a fluorescein isothiocyanate (FITC)-labelled-goat anti-mouse IgG antibody (DAKO, Glostrup, Denmark). Mean fluorescence intensity (MFI) in linear scale was obtained from at least 7000 cells in each sample, and the fluorescence produced by the myeloma P3X63 supernatant was considered as background. Results were expressed as relative MFI (rMFI), such that
as §4, §5

[9] = test system: CD43; assay: Cell surface expression of CD43 in human neutrophils (immunofluorescence flow cytometry); type: cell-based; conditions: 10 ng/ml, Medium = 100
Source text: as §1, §2, §3, §4, §5

[10] = test system: CD11a; assay: Cell surface expression of CD11a in human neutrophils (immunofluorescence flow cytometry); type: cell-based; conditions: 10 ng/ml, Medium = 100
Source text: as §1, §2, §3, §4, §5

[11] = test system: CD44; assay: Cell surface expression of CD44 in human neutrophils (immunofluorescence flow cytometry); type: cell-based; conditions: 10 ng/ml, Medium = 100
Source text: as §1, §2, §3, §4, §5

[12] = after 24 hours of intraluminal administration
[13] = after 7 days of intraluminal administration
[14] = 2.5 mg/kg orally daily for 21 days
[15] = 5 mg/kg orally daily for 21 days

CCCCCCCCCCCCCCCCOCC(COP(=O)(O)OCC(N)C(=O)O)OC (stereo not shown) [IES01]
% (inhibition, Sample 2 × 6 mm) [1, 12]: 80.2% | % (inhibition, Score) [1, 12]: 65.7% | % (inhibition, Weight/mm) [1, 12]: 75.2% | % (inhibition, Wet Weight) [1, 12]: 75.3% | Wet Weight (colon) ([1]; after 24 hours of intraluminal administration in the colon): 1.425 ± 0.20 | Sample 2 × 6 mm [1, 12]: 272.70 ± 44.43 mg | Score (0-10) [1, 12]: 3.2 ± 0.86 | Weight/mm [1, 12]: 0.158 ± 0.02 | % (inhibition, Sample 2 × 6 mm) [1, 13]: 31.7% | % (inhibition, Weight/mm) [1, 13]: 11.1% | % (inhibition, Wet Weight) [1, 13]: 11.1% | Wet Weight (colon) ([1]; after 7 days of intraluminal administration in the colon): 1.365 ± 0.24 | % (inhibition, Score) ([1]; after 7 days of intraluminal administration, 2.5 mg/kg): 50% | Sample 2 × 6 mm [1, 13]: 185.04 ± 23.18 mg | Score (0-10) [1, 13]: 2.0 ± 0.84 | Weight/mm [1, 13]: 0.151 ± 0.03 | Body weight DAY 1 [2]: 232.3 ± 2.68 g | Body weight DAY 2 [2]: 234.5 ± 2.94 g | Body weight DAY 4 [2]: 241.9 ± 2.40 g | Body weight DAY 7 [2]: 211.4 ± 2.48 g | Body weight DAY 8 [2]: 218.8 ± 3.57 g | Body weight DAY 11 [2]: 244.4 ± 4.95 g | Body weight DAY 12 [2]: 250.0 ± 4.72 g | Body weight DAY 13 [2]: 249.8 ± 6.84 g | Body weight DAY 14 [2]: 254.0 ± 8.44 g | pg PGE2 (intracellular) ([3]; 10 μM): 192 ± 25 pg | effect on PGE2 production (in words) ([3]; 3T3 fibroblasts, ionomycin-induced PGE2): no significant inhibition | times more efficient in inhibiting inflammation than indomethacin, at the molecular level ([4]; 2.5 mg/kg versus indomethacin 2 mg/kg, taking molecular weights into account): 3.8 times | Area (area below the curve of difference between right and left pad diameter) [4, 14]: 4.4 ± 0.63 A.U. | Inhibition of the inflammatory process [4, 14]: 43.8% | Area (area below the curve of difference between right and left pad diameter) [4, 15]: 5.6 ± 0.70 A.U. | Inhibition of the inflammatory process [4, 15]: 28.3%

C[C@H](CCC(=O)O)C[C@H](C)C[C@H](C)C(=O)/C=C(\O)[C@H](C)C[C@H](C)C/C=C/[C@@H](C)[C@@H](O)[C@@H](C)[C@@H](O)C[C@@H]1CC[C@@](C)([C@H]2CC[C@@](C)([C@@H](C)O)O2)O1 [Ionomycin, reference compound]
pg PGE2/mg (weight) [5]: 308 ± 31 pg PGE2/mg | pg PGE2 (intracellular) ([3]; 50 μM): 486 ± 38 pg

CCCCCCCCCCCCCC(=O)O[C@@H]1[C@@H](C)[C@@]2(O)[C@@H](C=C(CO)C[C@]3(O)C(=O)C(C)=C[C@@H]23)[C@@H]2C(C)(C)[C@]12OC(C)=O [PMA, reference compound]
L-Selectin cell surface expression (rMFI) [6]: 38 ± 7 | CD11b cell surface expression (rMFI) [7]: 272 ± 22 | HLA cell surface expression (rMFI) [8]: 96 ± 7 | CD43 cell surface expression (rMFI) [9]: 33.5 ± 9 | CD11a cell surface expression (rMFI) [10]: 95 ± 8 | CD44 cell surface expression (rMFI) [11]: 49.5 ± 11
